Experimental data: US11026937B2, “Heteroaryl inhibitors of PAD4” (PADLOCK THERAPEUTICS, INC., priority 2016, dated 2021)
Read-outs that look alike come from different tables or passages of the source.

Target: hPAD4 enzyme (Homo sapiens (Human), UniProt Q9UM07)
Experiment: PAD4 assay (hPAD4-RFMS, RapidFire mass spectrometry)
Type: biochemical
Conditions: 100 nM hPAD4, 50 μM substrate peptide, 1 mM CaCl2, 65 mins at 37° C.
Protocol: Compounds of the present invention were assayed as inhibitors of PAD4 using the assay protocol described below.
Compounds were solubilized in 100% DMSO to achieve 100 mM final compound concentration. Compound stock solutions were stored at RT. A series of dilutions were prepared in DMSO and mixed 8 times with 20 μL mixing volume. Final assay conditions were as follows:
Assay buffer (as aforementioned): 100 mM Tris-HCl (pH 7.6), 2 mM DTT, 1 mM CaCl2
Total incubation time: 65 mins at 37° C.
Stop solution: 40 μl 5% TCA in ACN
0.25 μL of compound solution was added to 10 μL of 200 nM PAD4 in assay buffer (100 mM Tris-HCl pH 7.6, 2 mM DTT). After 5 mins, 10 μL of 100 μM of substrate in buffer (100 mM Tris-HCl pH 7.6, 2 mM DTT, 2 mM CaCl2) was added and the reaction incubated for 60 mins at 37° C. The enzymatic reaction was quenched by addition of 40 μl of 5% TCA in ACN (1.7% TCA final concentration) stop solution.
The compound numbers correspond to the compound numbers in Tables 1 and 2. […] The term pIC50=−log(IC50). […] “NA” stands for “not assayed.”

[1] = read-out: hPAD4-RFMS: IC50 (μM) (Average)
[2] = read-out: hPAD4-RFMS: pIC50 (Average) (converted)

hPAD4 enzyme, sequence (Q9UM07 whole entry): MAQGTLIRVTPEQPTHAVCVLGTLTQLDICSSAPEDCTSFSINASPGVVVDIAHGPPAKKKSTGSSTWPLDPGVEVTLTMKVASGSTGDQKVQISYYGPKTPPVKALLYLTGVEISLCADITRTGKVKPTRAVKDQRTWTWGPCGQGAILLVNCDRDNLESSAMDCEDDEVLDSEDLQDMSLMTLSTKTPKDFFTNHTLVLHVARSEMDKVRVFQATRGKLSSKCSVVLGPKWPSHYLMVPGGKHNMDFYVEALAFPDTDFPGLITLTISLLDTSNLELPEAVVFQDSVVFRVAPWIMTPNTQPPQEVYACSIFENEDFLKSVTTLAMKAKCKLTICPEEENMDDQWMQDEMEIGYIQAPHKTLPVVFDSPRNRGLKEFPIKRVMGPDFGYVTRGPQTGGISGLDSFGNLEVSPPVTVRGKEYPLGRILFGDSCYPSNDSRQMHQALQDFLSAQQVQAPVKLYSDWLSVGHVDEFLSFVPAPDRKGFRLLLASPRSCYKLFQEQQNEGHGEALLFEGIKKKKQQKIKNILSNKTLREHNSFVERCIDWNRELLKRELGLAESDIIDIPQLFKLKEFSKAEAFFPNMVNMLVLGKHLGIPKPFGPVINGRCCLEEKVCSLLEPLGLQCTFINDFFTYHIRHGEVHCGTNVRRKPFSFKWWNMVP

| SMILES | IC50 [1] [µM] | IC50 [2] [µM] | hPAD4-RFMS: pIC50 (Average) |
| --- | --- | --- | --- |
| Cn1c(/C=C/C(=O)c2c(-c3ccccc3)c3ccccc3n(C)c2=O)nc2ccccc21 [Compound I-72] | > 100 | 10 to 100 |  |
| O=C(/C=C/c1ccccn1)c1c(-c2ccc(F)cc2)c2ccccc2[nH]c1=O [Compound I-108] | > 100 | 100 to 100000 |  |
| O=C(/C=C/c1cncnc1)c1c(-c2cccnc2)c2ccccc2[nH]c1=O [Compound I-95] | > 100 | 100 to 100000 |  |
| COc1ccc(/C=C/C(=O)c2ccc[nH]c2=O)cc1 [Compound I-151] | > 100 | 100 to 100000 |  |
| C#CCOCCOCCOc1ccc(/C=C/C(=O)c2c(-c3ccccc3)c3ccccc3[nH]c2=O)cc1 [Compound I-109, 4-phenyl-3-[(2E)-3-(4-{2-[2-(prop-2-yn-1-yloxy)ethoxy]ethoxy}phenyl)prop-2-enoyl]-1,2-dihydroquinolin-2-one] | > 100 | 100 to 100000 |  |
| O=C(/C=C/c1cncnc1)c1c(-c2ccccc2)c2cnccc2[nH]c1=O [Compound I-90, 4-phenyl-3-[(2E)-3-(pyrimidin-5-yl)prop-2-enoyl]-1,2-dihydro-1,6-naphthyridin-2-one] | > 100 | 100 to 100000 |  |
| O=C(/C=C/c1nc2ccccc2[nH]1)c1c(-c2ccccc2)c2ccccc2[nH]c1=O [Compound I-103] | 20 to 100 |  | F (pIC50 of 4-5) |
| COc1ccc(/C=C/C(=O)c2c(-c3ccccc3)c3ccccc3[nH]c2=O)cc1 [Compound I-139] | 3 to 20 | < 10 |  |
| O=C(/C=C/c1cccnc1)c1c(-c2ccccn2)c2ccccc2[nH]c1=O [Compound I-124] | > 100 | 100 to 100000 |  |
